Where a name gives a salt, the structure may show the parent alone. Read-outs that look alike come from different tables or passages of the source. Where only a bound is given, the exact number is not on record here.

The subject of assay [1] is histamine-induced vascular hyperpermeability. Nature of the assay: Rat histamine-induced vascular hyperpermeability reaction (in vivo antihistamine action). The following applies: SD male rat, oral administration, histamine injected intracutaneously 1 hour after administration, leaked Evans Blue. Here is the method:
An SD male rat (SPF) of 180 g in weight was previously fed for one week or more by allowing the rat to take a solid feed and tap water ad libitum, under the environment setting of a temperature of 22° C., humidity of 55% and an artificial illumination of 12 hours a day (light phase 8 am to 8 pm), and the rat was fasted overnight to be used for the experiment. Histamine.dihydrochloride (hereinafter referred to as histamine) and Evans Blue were used by dissolving each in physiological saline upon use. A substance to be tested was dissolved in water for injection or suspended in 0.5% carboxymethyl cellulose sodium, and the rat was orally administered with the solution or suspension (dose volume: 5 mL/kg body weight). After 1 hour from the administration, the physiological saline and the histamine solution were each intracutaneously injected to two locations (20 μg/0.05 ml/location) each on a back part of the rat of which hair was sheared with an electric clipper while anesthetizing with an ether. A 0.5% Evans Blue-containing physiological saline was injected into the tail vein of the rat (1 mL/200 g body weight) immediately before the intracutaneous injection of the histamine.
After 30 minutes, the animal was decapitated, and exsanguinated, and the skin was removed to measure an amount of leaked pigment in the blue-stained portion. The measurement of the amount of leaked pigment was carried out as follows. Skins of the pigment leaking site were cut out at two locations, 1 mL of a 2 mol/L aqueous potassium hydroxide solution was added thereto in a test tube, and the test tube was allowed to stand overnight at 37° C. to dissolve. Thereafter, 6 mL of a 1:3 mixed solution of 0.67 mol/L phosphoric acid and acetone was added to the solution, and the mixture was vigorously shaken for 10 minutes. Thereafter, the mixture was filtered, and the absorbance of the filtrate at 620 nm was measured. The absorbance obtained from the two locations of the sites injected with physiological saline, as blank value, was used for a compensation. The amount of leaked pigment was calculated from the calibration curve of Evans Blue at 620 nm.

Assay [2] addresses human histamine H1 receptor (Homo sapiens, UniProt P35367). Nature of the assay: In vitro human histamine H1 receptor binding experiment ([3H]pyrilamine, HEK293A cells stably expressing the receptor). The following applies: [3H]pyrilamine 3 nmol/L, room temperature 60 minutes. The protocol: Recombinant human histamine H1 receptor plasmid (prepared by Invitrogen) was transfected to HEK293A cells with Lipofectamine 2000 (Invitrogen). Cells stably expressing human histamine H1 receptor were screened with Geneticin (Invitrogen). The cells were continued to be cultured using a Dulbecco's Modified Eagle Medium containing 10% fetal bovine serum, 0.1 mmol/L MEM Non-Essential Amino Acids Solution, 2 mmol/L L-glutamine and 0.7 mg/mL Geneticin in a 5% CO2 incubator at 37° C. The cells stably expressing human histamine H1 receptor were prepared using 50 mmol/L Tris-HCl (pH 7.5) (hereinafter referred to as buffer) containing 0.1% bovine serum albumin, so as to have a concentration of 3×10^6 cells/mL, to give a cell sample preparation. Fifty microliters of the buffer, 50 μL of a test substance solution at various concentrations, and 50 μL of [^3H]pyrilamine solution (final concentration: 3 nmol/L) were added to each of the wells on the 96-well plate, and stirred, and 100 μL of the cell sample preparation was then added thereto (at a concentration of 3×10^5 cells/well) to initiate the reaction.
The cells were incubated at room temperature for 60 minutes, and then filtered on UniFilter GF/C plate (Packard) immersed in 0.5% polyethyleneimine using a cell harvester (IH-110, INNOTECH CORPORATION), to stop the reaction, and the plate was washed with the buffer. The plate after washing was sufficiently dried, and 20 μL of a scintillator (MaxiLight, manufactured by Hidex) was added thereto, and count per minute (cpm) was measured with a multi-labeled microplate reader (Plate Chameleo II, Hidex). The nonspecific binding was cpm in a case where 30 μmol/L pyrilamine was added. The experiments were carried out at n=3, and at least repeated 3 times.

In another assay the target is T1, cerebral H1 receptor (Mus musculus, UniProt P70174).
T1 construct: The excised brain tissue was homogenized with Polytron (Kinematica); from tissue; host or cells: ICR mouse brain (entire brain except cerebellum and medulla oblongata), homogenate
Nature of the assay: Murine cerebral H1 receptor occupying content (ex vivo, 3H-pyrilamine binding in brain homogenate after oral administration). Here is the method: A 6-week-old ICR male mouse was previously fed for one week or more by allowing the mouse to take a solid feed and tap water ad libitum, under the environment setting of a temperature of 22° C., humidity of 55% and an artificial illumination of 12 hours a day, and the mouse was fasted overnight to be used for the experiment. A substance to be tested was dissolved with water for injection or suspended in 0.5% carboxymethyl cellulose solution, and the solution or suspension was orally administered to the mouse (dose volume: 0.1 mL/10 g body weight). After 1 hour from the oral administration, the mouse was decapitated, and the entire brain, except for cerebellum and medulla oblongatae, was rapidly excised. The excised brain tissue was homogenized with Polytron (Kinematica) in an ice-cooled 50 mmol/L phosphate buffered saline (pH 7.4, 100 mg/1.9 mL).
To a test tube for reaction (TPX-Tube) were added 180 μL of the brain homogenate, and 10 μL of ^3H-pyrilamine solution (final concentration: 2 nmol/L) and 10 μL of a non-labeled pyrilamine solution (final concentration: 200 μmol/L) or a 50 mmol/L phosphate buffered saline, and the mixture was incubated at room temperature for 45 minutes, and 2.0 mL of an ice-cooled, 50 mmol/L phosphate buffered saline was then added thereto to stop the reaction. The reaction mixture was filtered with a GF/B filter ([…]), and the filtrate was placed in a vial and dried overnight at 60 degrees. After drying, 10 mL of a scintillator (AL-1, toluene-based, DOJINDO LABORATORIES) was added to the product, and the disintegration per minute (dpm) was measured with a liquid scintillation counter (Packard, U.S.A., TRI-CARB 2700TR) (5 minutes/vial).

Setting [3] is: ICR male mouse, oral administration, brain excised after 1 hour, larger ID50 = lower brain transfer, read-out: ID50 (the source's name).

T1 sequence (P70174 whole entry): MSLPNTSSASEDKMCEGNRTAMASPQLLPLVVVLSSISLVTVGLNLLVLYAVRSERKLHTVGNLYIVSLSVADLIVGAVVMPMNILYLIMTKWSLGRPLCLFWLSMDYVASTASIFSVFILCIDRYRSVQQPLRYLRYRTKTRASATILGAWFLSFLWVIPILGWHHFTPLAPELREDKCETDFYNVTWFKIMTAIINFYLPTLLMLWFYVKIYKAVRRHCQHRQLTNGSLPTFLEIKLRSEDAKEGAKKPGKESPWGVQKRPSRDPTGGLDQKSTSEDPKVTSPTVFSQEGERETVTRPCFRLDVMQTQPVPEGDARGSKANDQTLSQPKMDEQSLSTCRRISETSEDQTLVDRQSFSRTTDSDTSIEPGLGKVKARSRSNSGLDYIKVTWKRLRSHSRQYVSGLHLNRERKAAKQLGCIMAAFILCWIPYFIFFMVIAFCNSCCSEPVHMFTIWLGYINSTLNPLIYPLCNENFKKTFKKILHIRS
Sequence of human histamine H1 receptor (P35367 whole entry): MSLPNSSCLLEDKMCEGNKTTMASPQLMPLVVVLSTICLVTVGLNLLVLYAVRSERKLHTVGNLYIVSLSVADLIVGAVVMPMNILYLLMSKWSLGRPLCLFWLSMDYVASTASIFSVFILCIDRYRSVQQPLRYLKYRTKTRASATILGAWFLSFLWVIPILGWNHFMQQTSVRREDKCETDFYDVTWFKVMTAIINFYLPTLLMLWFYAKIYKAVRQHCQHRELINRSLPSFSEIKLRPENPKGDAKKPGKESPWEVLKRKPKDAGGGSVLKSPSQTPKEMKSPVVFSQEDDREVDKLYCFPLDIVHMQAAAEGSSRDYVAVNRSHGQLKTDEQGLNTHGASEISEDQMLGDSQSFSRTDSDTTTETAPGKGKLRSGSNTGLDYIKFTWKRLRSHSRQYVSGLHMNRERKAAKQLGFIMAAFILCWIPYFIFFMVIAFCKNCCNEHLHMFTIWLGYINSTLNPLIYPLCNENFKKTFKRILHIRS

The IC50 is the concentration at which inhibition is half-maximal. Read a high IC50 as weaker potency in that assay. With `CCN(C)CC/C=C1\c2cc(CC(=O)O)ccc2OCc2ccsc21` [Compound 30], the ED50 was roughly 0.3 mg/kg in assay [1] (read-out: ED50) and 95 mg/kg at cerebral H1 receptor (mouse, po, 1 h, read-out: ID50). This molecule also had an IC50 in assay [2] of 57.6 nM.
In the case of `CN(C)CC/C=C1/c2cc(CC(=O)O)ccc2OCc2sccc21` [Compound 28, (Z)-[4-(3-Dimethylaminopropylidene)-4,10-dihydro-9-oxa-1-thiabenzo[f]azulen-6-yl]acetic acid], the ED50 is less than 0.1 mg/kg in assay [1] (read-out: ED50) and 5.85 mg/kg at cerebral H1 receptor (setting [3]). The molecule further showed an IC50 in assay [2] of 43.4 nM.
The corresponding values for `O=C(O)Cc1ccc2c(c1)/C(=C\CCN1CCCC1)c1sccc1CO2` [Compound 26, (E)-{4-[3-(Pyrrolidin-1-yl)propylidene]-4,10-dihydro-9-oxa-3-thiabenzo[f]azulen-6-yl}acetic acid] are 0.156 mg/kg, 80.9 mg/kg and 19.2 nM.
For `CCOC(=O)C(C)(C)c1cc2c(s1)C(=O)Cc1ccccc1C2=CCCN(C)C` [Compound 24, Ethyl (E,Z)-2-[4-(3-dimethylaminopropylidene)-10-oxo-9,10-dihydro-4H-1-thiabenzo[f]azulen-2-yl]-2-methylpropionate hydrochloride], the values for the ED50 (in assay [1] (read-out: ED50); at cerebral H1 receptor (setting [3])) were roughly 1 mg/kg and 174 mg/kg, respectively. The molecule also showed an IC50 in assay [2] of 13.2 nM.
For the molecule `Cl.O=C(O)Cc1ccc2c(c1)/C(=C/CCN1CCCC1)c1sccc1CO2` [Compound 71, (Z)-{4-[3-(Pyrrolidin-1-yl)propylidene]-4,10-dihydro-9-oxa-3-thiabenzo[f]azulen-6-yl}acetic acid hydrochloride], the ED50 in assay [1] (read-out: ED50) was 0.83 mg/kg; on cerebral H1 receptor (mouse, po, 1 h, read-out: ID50) it was greater than 80 mg/kg. The molecule also came in with a half-maximal inhibitory concentration (IC50) in assay [2] of 63.4 nM.
On to `CN(C)CCC=C1c2cc(C(C)(C)C(=O)O)ccc2OCc2ccsc21` [Compound 22, (E,Z)-2-[4-(3-Dimethylaminopropylidene)-4,10-dihydro-9-oxa-3-thiabenzo[f]azulen-6-yl]-2-methylpropionic acid], for which the ED50 was roughly 1 mg/kg in assay [1] (read-out: ED50) and 18.7 mg/kg on cerebral H1 receptor (setting [3]). Further, the IC50 in assay [2] amounted to 60 nM.
The corresponding values for `O=C(O)Cc1ccc2c(c1)/C(=C/CCN1CCCC1)c1sccc1CO2` [Compound 27, (Z)-{4-[3-(Pyrrolidin-1-yl)propylidene]-4,10-dihydro-9-oxa-3-thiabenzo[f]azulen-6-yl}acetic acid] are 0.226 mg/kg, greater than 200 mg/kg and 70.2 nM.
`O=C(O)CCc1ccc2c(c1)/C(=C\CCN1CCCC1)c1ccsc1CO2` [Compound 58, (E)-3-{4-[3-(Pyrrolidin-1-yl)propylidene]-4,10-dihydro-9-oxa-1-thiabenzo[f]azulen-6-yl}propionic acid]: the ED50 is roughly 0.1 mg/kg in assay [1] (read-out: ED50) and 110 mg/kg at cerebral H1 receptor (setting [3]). The IC50 in assay [2] is 23 nM.
The corresponding values for `CN(C)CC/C=C1\c2cc(CC(=O)O)ccc2OCc2ccsc21` [Compound 19, (E)-[4-(3-Dimethylaminopropylidene)-4,10-dihydro-9-oxa-3-thiabenzo[f]azulen-6-yl]acetic acid] are 0.24 mg/kg, 6.08 mg/kg and 56.9 nM.
On the same counts, the results for `CN1CCN(CC/C=C2\c3cc(CC(=O)O)ccc3OCc3ccsc32)CC1` [Compound 50, (E)-{4-[3-(4-Methylpiperadin-1-yl)propylidene]-4,10-dihydro-9-oxa-3-thiabenzo[f]azulen-6-yl}acetic acid] are 1.34 mg/kg, greater than 80 mg/kg and 89.1 nM.
In the case of `O=C(O)CCc1ccc2c(c1)/C(=C/CCN1CCCC1)c1ccsc1CO2` [Compound 59, (Z)-3-{4-[3-(Pyrrolidin-1-yl)propylidene]-4,10-dihydro-9-oxa-1-thiabenzo[f]azulen-6-yl}propionic acid], the ED50 in assay [1] (read-out: ED50) was roughly 0.3 mg/kg; on cerebral H1 receptor (setting [3]), greater than 200 mg/kg. Besides, the IC50 in assay [2] was determined as 36 nM.
On to `CN(C)CC/C=C1/c2cc(CCC(=O)O)ccc2OCc2sccc21.Cl` [Compound 57, (Z)-3-[4-(3-Dimethylaminopropylidene)-4,10-dihydro-9-oxa-1-thiabenzo[f]azulen-6-yl]propionic acid hydrochloride], for which the ED50 was roughly 0.1 mg/kg in assay [1] (read-out: ED50) and greater than 80 mg/kg at cerebral H1 receptor (mouse, po, 1 h, read-out: ID50). In addition, the IC50 in assay [2] was 56.3 nM.
In assay [1], `CNCC/C=C1\c2cc(C(C)(C)C(=O)O)ccc2OCc2ccsc21` [Compound 25, (E)-{2-Methyl-2-[4-(3-methylaminopropylidene)-4,10-dihydro-9-oxa-3-thiabenzo [f]azulen-6-yl]}propionic acid] returned an ED50 of 5.70 mg/kg. The molecule further had an ID50 at cerebral H1 receptor (ICR male mouse, oral administration, brain excised after 1 hour, larger ID50 = lower brain transfer) greater than 200 mg/kg.
With `O=C(O)Cc1ccc2c(c1)/C(=C\CCN1CCCCC1)c1sccc1CO2` [Compound 34, (E)-{4-[3-(Piperidin-1-yl)propylidene]-4,10-dihydro-9-oxa-3-thiabenzo[f]azulen-6-yl}acetic Acid], the figures for the ED50 (in assay [1] (read-out: ED50); on cerebral H1 receptor (setting [3])) were roughly 0.3 mg/kg and 34.8 mg/kg, respectively. The same molecule came in with an IC50 in assay [2] of 31.4 nM.
For the molecule `CN(C)CC/C=C1\c2cc(CC(=O)O)ccc2OCc2sccc21` [Compound 29, (E)-[4-(3-Dimethylaminopropylidene)-4,10-dihydro-9-oxa-1-thiabenzo[f]azulen-6-yl]acetic acid], the ED50 in assay [1] (read-out: ED50) is less than 0.1 mg/kg; on cerebral H1 receptor (setting [3]), 23.7 mg/kg. This molecule came in with an IC50 in assay [2] of 70.7 nM.
Turning to `O=C(O)Cc1ccc2c(c1)/C(=C/CCN1CCOCC1)c1sccc1CO2` [Compound 33, (Z)-{4-[3-(Morpholin-4-yl)propylidene]-4,10-dihydro-9-oxa-3-thiabenzo[f]azulen-6-yl}acetic acid], the results for the ED50 (in assay [1] (read-out: ED50); at cerebral H1 receptor (setting [3])) were roughly 0.3 mg/kg and 21.1 mg/kg, respectively.
With `Cl.O=C(O)Cc1ccc2c(c1)/C(=C\CCN1CCCC1)c1sccc1CO2` [Compound 70, (E)-{4-[3-(Pyrrolidin-1-yl)propylidene]-4,10-dihydro-9-oxa-3-thiabenzo[f]azulen-6-yl}acetic acid hydrochloride], the ED50 is 0.42 mg/kg in assay [1] (read-out: ED50) and 51.4 mg/kg on cerebral H1 receptor (mouse, po, 1 h, read-out: ID50). This molecule also registered an IC50 in assay [2] of 14.3 nM.
